Measured values taken from US12410153B2, “Compounds, compositions and methods” (Avalo Therapeutics, Inc., priority 2014, dated 2025).
Where two headings read alike, the source gives them in different places.

Test: Repeated once-daily oral dosing with food (Days 1-7) in healthy subjects, PK and PD
Type: in vivo, human
Settings: for Cmax: read-out: Cmax, Mean (SD); for AUC(0-inf): read-out: AUCinf, Mean (SD)
Experimental: A randomized, double-blind, placebo-controlled, parallel-dose group in-patient study is conducted to investigate the pharmacodynamic (PD) effects of crystalline Form II of Compound (I) in healthy subjects.
The study is designed as a three-part, sequential study. The sequential nature of the study ensures that a range of doses are investigated first in a young, healthy population (Part 1) before proceeding to higher doses in the healthy population and the comparator populations (intermediate age and elderly) (Parts 2 and 3). For the purposes of this study, “young” refers to a subject who is 18 to 45 years of age, “intermediate age” refers to a subject who is 46 to 64 years of age, and “elderly” refers to a subject who is 65 years of age or older.
After a screening period of up to 21 days (Days −23 to −3), 16 healthy, young male and female subjects are randomly assigned to a dose group as shown in Table 9.
Each parallel dose group is balanced for gender (approximately equal number of males and females). The randomized subjects are domiciled from Day −1 through Day 8. On Day −1, the subjects receive placebo tablets in the fed state and undergo ambulatory blood pressure monitoring (ABPM) and safety assessments to establish time-matched baselines. On Days 1-7, the subjects receive the study drug in the fed state and undergo safety, pharmacokinetic (PK) and pharmacodynamics (PD) assessments. On Days 8-11, follow-up PK and safety assessments are performed.
Safety assessments include Clinician-Administered Dissociative States Scale (CADSS), Columbia-Suicide Severity Rating Scale (C-SSRS), concomitant medication, adverse event (AE) and vital sign assessments. In PK assessments, blood samples are taken and analyzed to determine PK parameters such as Cmax, Tmax, AUC0-24, and t1/2. PD assessments include ABPM, plasma brain-derived neurotrophic factor (BDNF) measurements, and Profile of Mood States (POMS) assessments.
After a screening period of up to 21 days (Days −23 to −3), 16 subjects (8 healthy, young male and female subjects, and 8 healthy, intermediate age male and female subjects) are randomly assigned to a dose group as shown in Table 10.
After a screening period of up to 21 days (Days −23 to −3), 16 subjects (8 healthy, young male and female subjects, and 8 healthy, elderly male and female subjects) are randomly assigned to a dose group as shown in Table 11.

[1] = both sexes, human, plasma, oral, 12 mg, young subjects, 12 mg, Day 7
[2] = both sexes, human, plasma, oral, 16 mg, young subjects, 16 mg, Day 7
[3] = both sexes, human, plasma, oral, 20 mg, young subjects, 20 mg, Day 7

Structure (SMILES): Cc1ccc(COC(=O)N2CC[C@H](CNc3ncccn3)[C@H](F)C2)cc1 [Form II, 4-methylbenzyl (3S, 4R)-3-fluoro-4-[(pyrimidin-2-ylamino)methyl] piperidine-1-carboxylate]
- AUC(0-t) (both sexes, human, plasma, oral, 12 mg, young subjects, 12 mg, Day 1, read-out: AUC0-24, Mean (SD)): 1.86 µg·h/mL
- AUC(0-t) (both sexes, human, plasma, oral, 12 mg, young subjects, 12 mg, Day 1, read-out: AUClast, Mean (SD)): 1.84 µg·h/mL
- Cmax (both sexes, human, plasma, oral, 12 mg, young subjects, 12 mg, Day 1): 0.239 µg/mL
- Vd/F (both sexes, human, plasma, oral, 12 mg, young subjects, 12 mg, Day 1, read-out: Vz/F, Mean (SD)): 197 L
- Tmax (both sexes, human, plasma, oral, 12 mg, young subjects, 12 mg, Day 1, read-out: tmax, Mean (SD)): 1.77 h
- Tmax (both sexes, human, plasma, oral, 12 mg, young subjects, 12 mg, Day 1, read-out: tmax, Median): 1.5 h
- AUC(0-t) (both sexes, human, plasma, oral, 12 mg, young subjects, 12 mg, Day 7, read-out: AUC0-24, Mean (SD)): 3.06 µg·h/mL
- AUC(0-inf) [1]: 5.93 µg·h/mL
- AUC(0-t) (both sexes, human, plasma, oral, 12 mg, young subjects, 12 mg, Day 7, read-out: AUClast, Mean (SD)): 5.61 µg·h/mL
- Cmax [1]: 0.274 µg/mL
- Vd/F (both sexes, human, plasma, oral, 12 mg, young subjects, 12 mg, Day 7, read-out: Vss/F, Mean (SD)): 115 L
- half-life (both sexes, human, plasma, oral, 12 mg, young subjects, 12 mg, Day 7, read-out: t1/2, Mean (SD) (converted)): 20.5 h
- Tmax (both sexes, human, plasma, oral, 12 mg, young subjects, 12 mg, Day 7, read-out: tmax, Mean (SD)): 2.42 h
- Tmax (both sexes, human, plasma, oral, 12 mg, young subjects, 12 mg, Day 7, read-out: tmax, Median): 2.5 h
- AUC(0-t) (both sexes, human, plasma, oral, 16 mg, young subjects, 16 mg, Day 1, read-out: AUC0-24, Mean (SD)): 2.66 µg·h/mL
- AUC(0-t) (both sexes, human, plasma, oral, 16 mg, young subjects, 16 mg, Day 1, read-out: AUClast, Mean (SD)): 2.63 µg·h/mL
- Cmax (both sexes, human, plasma, oral, 16 mg, young subjects, 16 mg, Day 1): 0.306 µg/mL
- Vd/F (both sexes, human, plasma, oral, 16 mg, young subjects, 16 mg, Day 1, read-out: Vz/F, Mean (SD)): 175 L
- Tmax (both sexes, human, plasma, oral, 16 mg, young subjects, 16 mg, Day 1, read-out: tmax, Mean (SD)): 2.58 h
- Tmax (both sexes, human, plasma, oral, 16 mg, young subjects, 16 mg, Day 1, read-out: tmax, Median): 3 h
- AUC(0-t) (both sexes, human, plasma, oral, 16 mg, young subjects, 16 mg, Day 7, read-out: AUC0-24, Mean (SD)): 4.3 µg·h/mL
- AUC(0-inf) [2]: 8.02 µg·h/mL
- AUC(0-t) (both sexes, human, plasma, oral, 16 mg, young subjects, 16 mg, Day 7, read-out: AUClast, Mean (SD)): 7.45 µg·h/mL
- Cmax [2]: 0.413 µg/mL
- half-life (both sexes, human, plasma, oral, 16 mg, young subjects, 16 mg, Day 7, read-out: t1/2, Mean (SD) (converted)): 20 h
- Tmax (both sexes, human, plasma, oral, 16 mg, young subjects, 16 mg, Day 7, read-out: tmax, Mean (SD)): 1.75 h
- Tmax (both sexes, human, plasma, oral, 16 mg, young subjects, 16 mg, Day 7, read-out: tmax, Median): 1.75 h
- AUC(0-t) (both sexes, human, plasma, oral, 20 mg, young subjects, 20 mg, Day 1, read-out: AUC0-24, Mean (SD)): 3.52 µg·h/mL
- AUC(0-t) (both sexes, human, plasma, oral, 20 mg, young subjects, 20 mg, Day 1, read-out: AUClast, Mean (SD)): 3.48 µg·h/mL
- Cmax (both sexes, human, plasma, oral, 20 mg, young subjects, 20 mg, Day 1): 0.384 µg/mL
- Vd/F (both sexes, human, plasma, oral, 20 mg, young subjects, 20 mg, Day 1, read-out: Vz/F, Mean (SD)): 148 L
- Tmax (both sexes, human, plasma, oral, 20 mg, young subjects, 20 mg, Day 1, read-out: tmax, Mean (SD)): 2.17 h
- Tmax (both sexes, human, plasma, oral, 20 mg, young subjects, 20 mg, Day 1, read-out: tmax, Median): 2.25 h
- AUC(0-t) (both sexes, human, plasma, oral, 20 mg, young subjects, 20 mg, Day 7, read-out: AUC0-24, Mean (SD)): 6.04 µg·h/mL
- AUC(0-inf) [3]: 10.5 µg·h/mL
- AUC(0-t) (both sexes, human, plasma, oral, 20 mg, young subjects, 20 mg, Day 7, read-out: AUClast, Mean (SD)): 10.1 µg·h/mL
- Cmax [3]: 0.534 µg/mL
- half-life (both sexes, human, plasma, oral, 20 mg, young subjects, 20 mg, Day 7, read-out: t1/2, Mean (SD) (converted)): 18.8 h
- Tmax (both sexes, human, plasma, oral, 20 mg, young subjects, 20 mg, Day 7, read-out: tmax, Mean (SD)): 1.67 h
- Tmax (both sexes, human, plasma, oral, 20 mg, young subjects, 20 mg, Day 7, read-out: tmax, Median): 1.5 h
- Tmax (both sexes, human, plasma, oral, Day 1, read-out: median Tmax values, range): 2 to 3 h
- Vd (both sexes, human, plasma, oral, Day 7, read-out: average apparent volume of distribution, range): 83 to 116 L
- half-life (both sexes, human, plasma, oral, Day 7, read-out: average t½, range): 17 to 25 h
- half-life (both sexes, human, plasma, oral, Day 7, read-out: average t½, range across genders): 21 to 24 h
- Tmax (both sexes, human, plasma, oral, Day 7, read-out: median Tmax values, range): 1.5 to 3 h
- Day 7/Day 1 Cmax Ratio, Mean (SD) (elderly, 12 mg): 1.53 (0.13)
- Observed Accumulation Index, Mean (SD) (elderly, 12 mg): 2.12 (0.22)
- Steady State Accumulation Index, Mean (SD) (elderly, 12 mg): 1.30 (0.11)
- CL/F, Mean (SD) (elderly, 12 mg, Day 1): 5.87 (1.32) L/h
